Results as given in the supplement of paper PMC10307832.

Assays:
Test in all cases: relative viability (nuclei count vs DMSO), 5 days (fraction); higher = more cells survive
[1] = compound: CC(C)N(CCCNC(=O)Nc1ccc(C(C)(C)C)cc1)C[C@H]1O[C@@H](n2ccc3c(N)ncnc32)[C@H](O)[C@@H]1O + O=C(c1cc(Cc2n[nH]c(=O)c3ccccc23)ccc1F)N1CCN(C(=O)C2CC2)CC1 [Olaparib] (partner 8 µM)
In short: (§1)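 Lung cancer cell lines were pin-tool dosed in 1536-well plates on the day after seeding, with either a lone drug or a fixed anchor-drug dose plus five library-drug doses (not always all listed) in √10 steps. Nuclei were counted on 4× images after 5 days. Relative viability is the ratio of treated-well to vehicle-well nuclei counts, with each value a median of duplicate plates.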

[2] = compound: CC(C)N(CCCNC(=O)Nc1ccc(C(C)(C)C)cc1)C[C@H]1O[C@@H](n2ccc3c(N)ncnc32)[C@H](O)[C@@H]1O + C[C@@H](Oc1cc(-c2cnn(C3CCNCC3)c2)cnc1N)c1c(Cl)ccc(F)c1Cl [Crizotinib] (partner 1 µM)
In short: as §1

[3] = compound: CC(C)N(CCCNC(=O)Nc1ccc(C(C)(C)C)cc1)C[C@H]1O[C@@H](n2ccc3c(N)ncnc32)[C@H](O)[C@@H]1O + Nc1nc2[nH]cc(CCc3ccc(C(=O)N[C@@H](CCC(=O)O)C(=O)O)cc3)c2c(=O)[nH]1 [Pemetrexed] (partner 0.2 µM)
In short: as §1

Shikonin + Linsitinib = compound: CC(C)=CC[C@@H](O)C1=CC(=O)c2c(O)ccc(O)c2C1=O [Shikonin] + C[C@]1(O)C[C@@H](c2nc(-c3ccc4ccc(-c5ccccc5)nc4c3)c3c(N)nccn32)C1 [Linsitinib] (partner 1 µM)
In short: as §1

Cell Line	relative viability ([1]; first compound 0.08 µM)	relative viability ([1]; first compound 0.253 µM)	relative viability ([1]; first compound 0.8 µM)	relative viability ([1]; first compound 2.53 µM)	relative viability ([1]; first compound 8 µM)	relative viability ([2]; first compound 0.08 µM)	relative viability ([2]; first compound 0.253 µM)	relative viability ([2]; first compound 0.8 µM)	relative viability ([2]; first compound 2.53 µM)	relative viability ([2]; first compound 8 µM)	relative viability ([3]; first compound 0.08 µM)	relative viability ([3]; first compound 0.253 µM)	relative viability ([3]; first compound 0.8 µM)	relative viability ([3]; first compound 2.53 µM)	relative viability ([3]; first compound 8 µM)	relative viability (Shikonin + Linsitinib; first compound 0.01 µM)	relative viability (Shikonin + Linsitinib; first compound 0.1 µM)	relative viability (Shikonin + Linsitinib; first compound 0.3162 µM)	relative viability (Shikonin + Linsitinib; first compound 1 µM)
COR-L23	0.297	0.376	0.365	0.347	0.29	0.601	0.724	0.765	0.755	0.574	0.188	0.203	0.202	0.2	0.21	0.99	0.865	0.917	0.797
NCI-H2126	0.873	0.932	0.901	0.883	0.778	1.01	0.986	1.06	0.992	0.959	0.657	0.619	0.696	0.665	0.691	0.71	0.814	0.752	0.699
LC-2-ad	0.67	0.717	0.715	0.699	0.626	0.442	0.506	0.444	0.445	0.407	0.282	0.271	0.263	0.282	0.276	0.769	0.884	0.833	0.812
NCI-H1915	0.244	0.288	0.229	0.236	0.23	0.937	0.879	0.768	0.863	0.793	0.444	0.473	0.449	0.467	0.497	1.05	1.16	1.15	1.09
NCI-H2085	0.749	0.834	0.873	0.867	0.763	0.764	0.884	0.99	0.836	0.785	0.877	0.61	0.899	1.05	0.975	0.797	0.903	0.867	0.865
COR-L 105	0.678	0.724	0.702	0.652	0.649	0.671	0.823	0.82	0.724	0.846	1.09	1.01	1.18	1.11	0.956	1.1	0.971	0.845	0.655
SW 1573	0.464	–	0.517	0.441	0.53	0.749	0.894	0.825	0.846	0.695	0.88	0.804	0.829	0.832	0.778	0.968	0.772	0.887	0.626
LXF-289	1.02	1.08	1.1	1.1	0.991	0.781	0.893	0.834	0.837	0.78	0.876	1	0.96	1.02	0.833	1.07	0.911	1	0.996
RERF-LC-KJ	0.887	1.04	0.843	1	0.963	0.821	0.85	0.845	0.789	0.779	0.502	0.478	0.517	0.48	0.466	0.985	0.896	0.867	0.953
NCI-H1666	0.704	0.755	0.828	0.739	0.698	1.02	0.983	0.953	1.02	0.76	0.895	0.909	0.919	0.796	0.819	0.835	0.802	0.807	0.865
NCI-H2087	0.599	0.694	0.553	0.667	0.581	0.981	1.04	1.16	0.945	0.795	0.718	0.653	0.714	0.735	0.662	1.27	1.3	0.927	0.839
NCI-H1734	0.574	0.608	0.539	0.662	0.529	0.644	0.656	0.728	0.649	0.605	0.397	0.417	0.431	0.417	0.412	0.839	0.91	0.939	0.857
NCI-H2228	0.879	0.712	0.427	0.601	0.615	0.586	–	0.468	0.543	0.44	0.336	0.326	0.313	0.298	0.337	0.629	0.738	0.7	0.626
EMC-BAC-2	0.486	0.513	0.472	0.389	0.435	0.729	0.727	0.655	0.643	0.707	0.439	0.465	0.432	0.431	0.488	0.8	0.836	0.839	0.855
NCI-H2009	0.723	0.643	0.644	0.629	0.64	1.03	0.971	1.08	0.999	1.08	0.994	1.05	0.97	0.975	0.953	1.23	1.25	1.14	0.848
NCI-H647	0.439	0.507	0.508	0.587	0.543	1.01	–	1.05	1.15	0.953	0.197	0.164	0.143	0.194	0.176	1.01	1.37	1.51	1.32
NCI-H661	0.85	0.758	0.795	0.786	0.729	1.05	1.15	1.13	1.08	0.978	0.91	0.892	0.894	0.977	0.912	0.724	0.575	0.656	0.546
NCI-H1792	0.434	–	0.365	0.374	0.399	0.975	0.919	1.01	0.915	1.03	0.769	–	0.697	0.882	0.747	0.511	0.388	0.658	0.661
NCI-H2023	0.491	0.458	0.458	0.446	0.43	0.753	0.733	0.859	0.755	0.751	0.246	0.246	0.232	0.215	0.213	0.655	0.831	0.687	0.629
LOU-NH91	0.886	0.86	–	0.984	0.899	0.755	0.735	–	0.7	0.721	0.359	0.373	–	0.439	0.427	0.904	0.999	1.06	0.974
NCI-H3122	0.684	0.632	0.536	0.663	0.512	0.349	0.299	0.285	0.3	0.277	0.211	0.194	0.198	0.192	0.199	1.03	1.07	1.09	1.03
LCLC-97TM1	0.343	0.318	0.205	0.319	0.294	0.405	–	0.37	0.344	0.265	0.179	0.175	0.18	0.163	0.183	0.175	0.176	0.173	0.162
NCI-H650	0.376	0.468	0.305	0.32	0.328	0.63	0.709	0.785	0.719	0.724	0.882	0.884	0.908	0.742	1.01	0.975	–	0.843	0.845
PC-14	0.303	0.249	0.281	0.257	0.247	0.907	0.881	0.97	0.943	0.723	0.149	0.171	0.138	0.141	0.163	0.978	0.997	1.12	0.983
H3255	0.552	0.562	0.555	0.598	0.517	0.763	0.76	0.959	0.717	0.735	0.569	0.538	0.61	0.562	0.548	0.999	1.05	1.06	1.08
SK-MES-1	0.83	0.811	0.734	0.713	0.662	0.991	1.05	1.01	0.997	0.956	1.05	0.915	0.819	1.03	0.912	1.18	1.06	1.04	1.08
NCI-H1437	0.604	0.642	0.624	0.592	0.561	0.924	0.923	0.962	0.899	0.898	0.31	0.307	0.325	0.296	0.283	1.28	1.05	1.23	1.11
LU99A	0.322	0.252	0.264	0.275	0.237	0.661	0.571	0.513	0.524	0.498	0.178	0.206	0.176	0.204	0.167	0.573	0.522	0.525	0.536
